Measured values from PMC7583830 (Molecules, 2020).
“And” between values parts separate entries of the source, which are not always exact repeats. Equal entries are not always repeated. Where two headings read alike, the source gives them in different places. Where a SMILES comes first, the peptide text is derived from it. [ ]: non-standard residue; d: D form. The star is where a group is joined. DOTA = O=C(O)CN1CCN(CC(=O)O)CCN(CC(=O)*)CCN(CC(=O)O)CC1; 1Nal = N[C@@H](Cc1cccc2ccccc12)C(=O)O; NMeNle = CCCC[C@H](NC)C(=O)O

What was measured:
human CCK2R = target: T1, human CCK2R (Homo sapiens, UniProt P32239); test: Competition assay against [125I][3-iodo-Tyr12,Leu15]gastrin-I on A431-CCK2R cells; type: binding; conditions: non-labeled peptide, displacement of [125I][3-iodo-Tyr12,Leu15]gastrin-I, 1 h RT
T1 construct: expressed in transfected cells; host or cells: A431 human epidermoid carcinoma cells, stably transfected (plasmid pCR3.1); provided by Dr. Luigi Aloj
T1 sequence (P32239 1-447): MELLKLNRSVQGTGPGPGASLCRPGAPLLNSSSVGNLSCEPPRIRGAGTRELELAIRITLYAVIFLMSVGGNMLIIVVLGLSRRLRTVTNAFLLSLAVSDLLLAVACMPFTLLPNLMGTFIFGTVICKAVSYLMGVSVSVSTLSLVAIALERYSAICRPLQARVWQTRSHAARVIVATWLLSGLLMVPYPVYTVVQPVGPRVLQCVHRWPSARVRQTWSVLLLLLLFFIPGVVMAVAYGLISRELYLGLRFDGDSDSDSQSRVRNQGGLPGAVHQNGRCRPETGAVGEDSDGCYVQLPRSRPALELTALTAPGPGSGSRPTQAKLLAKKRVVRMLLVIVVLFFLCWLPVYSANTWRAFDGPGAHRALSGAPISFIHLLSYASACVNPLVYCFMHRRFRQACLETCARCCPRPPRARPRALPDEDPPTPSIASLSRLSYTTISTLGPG
Method: [^125I][3-iodo-Tyr^12,Leu^15]gastrin-I at high molar activity was obtained by HPLC purification and stored in aliquots at −25 °C. Binding assays were carried out using 96-well filter plates (MultiScreenHTS-FB, Merck Group, Darmstadt, Germany) pre-treated with 10 mM TRIS/139 mM NaCl pH 7.4 (2 × 250 µL). For the assay, 200,000–400,000 A431-CCK2R cells per well were prepared in 20 mM HEPES buffer pH 7.4 containing 10 mM MgCl2, 14 µM bacitracin and 0.5% BSA. The cells (n = 3) were incubated with increasing concentrations of the peptide conjugates (0.0003–30,000 nM) and [^125I][3-iodo-Tyr^12,Leu^15]gastrin-I (50,000 cpm) for 1 h at RT. Incubation was interrupted by filtration of the medium and rapid rinsing with ice-cold 10 mM TRIS/139 mM NaCl pH 7.4 (2 × 200 µL) and the filters were measured in the gamma-counter. Half maximal inhibitory concentration (IC50) values were calculated following nonlinear regression with Origin software (Microcal Origin 6.1, Northampton, MA, USA).

[1] = Stability in fresh human serum (radio-HPLC); type: in vitro ADME; conditions: 24 h incubation, 37 °C
Method: In vitro stability studies for the characterization of the metabolic stability of the radiolabeled peptide analogs in human serum were carried out with [^177Lu]Lu-1, [^177Lu]Lu-M1, [^177Lu]Lu-M2, [^177Lu]Lu-M3 and [^177Lu]Lu-M4 (n = 2). Additional stability studies in rat liver and kidney homogenates were performed for [^177Lu]Lu-1 (n = 2). Tissue homogenates were prepared from dissected organs by homogenization for 1 min at RT (IKA-Werke, Staufen, Germany) in 20 mM HEPES buffer pH 7.3 (30% v/v). The radioligands were incubated in the different media at a concentration of 500 pmol/mL (corresponding to an activity of 6–11 MBq). After incubation at 37 °C at different time points for up to 24 h, a 100 µl sample was taken in duplicates and analyzed by HPLC. Samples obtained from human serum and rat homogenates were treated with ACN at a ratio of 1:1.5 (v/v) to precipitate proteins, centrifuged (14,000 rpm, 2 min, centrifuge 5424, Eppendorf AG, Germany) and diluted with water at a ratio of 1:1 (v/v). A 100 µl aliquot of this solution was injected into the radio HPLC system. The degradation of the radioligand was evaluated based on the radiochemical purity after radiolabeling and the percentage of intact radiopeptide observed during incubation in the different media.

[2] = Distribution coefficient (logD) in octanol/PBS; type: physicochemical
Method: The mixture was vigorously vortexed at room temperature over a period of 15 min using a small shaker (MS3 Basic, IKA, Staufen, Germany) with speed of 1500 rpm.

[3] = Protein binding in human serum by size exclusion chromatography; type: in vitro ADME; conditions: 24 h incubation
Method: For protein binding assessment, the radiolabeled DOTA-peptides were incubated in fresh human serum at 37 °C (500 pmol/mL, n = 2). After 1, 4 and 24 h of incubation, two samples were taken for each time point and analyzed by Sephadex G-50 size-exclusion chromatography (GE Healthcare Illustra, Little Chalfont, UK). The percentage of protein binding was determined by measuring the column and the eluate with the gamma-counter.

[4] = Metabolic stability in vivo and radiometabolites (radio-HPLC of blood, urine, liver, kidney); set-up: species or system BALB/c mice
Method: Metabolic biodistribution studies were performed in accordance with the ethical standards of the institution and approved by the Austrian Ministry of Science (BMWFW-66.011/0072-V/3b/2019). These studies were carried out in 5- to 7-week-old female BALB/c mice (n = 3) injected with [^177Lu]Lu-1 via a lateral tail vein. To allow monitoring of the metabolites by radio-HPLC, mice were injected with 30 MBq corresponding to 0.8 nmol total peptide. The mice were euthanized by cervical dislocation after different time points of 10 min, 30 min and 1 h p.i. and the urine and a venous blood sample were collected at the time of sacrifice. Liver and kidneys were dissected and homogenized in 20 mM HEPES buffer pH 7.3 at a ratio of 1:1 (v/v) with an Ultra-Turrax T8 homogenizer (IKA-Werke, Staufen, Germany) for 1 min at RT. Before radio-HPLC analysis, the samples (except urine) were treated with ACN at a ratio of 1:1 (v/v) to precipitate proteins, centrifuged at 2000× g for 2 min and diluted with water at a ratio of 1:1 (v/v). For HPLC analysis of the samples, the analytical HPLC system described above with a flow rate of 1 mL/min was used together with the following optimized water/ACN/0.1% TFA gradient to allow a better separation of [^177Lu]Lu-1 and the different radiometabolites: 0–7 min 1–7% ACN, 7–8 min 7–10% ACN, 8–18 min 10–18% ACN, 18–20 min 18–32% ACN, 20–27 min 32% ACN, 27–37 min […], 37–40 min 80% ACN, 40–40.1 min 80–1% ACN, 40.1–45 min 1% ACN. Urine was measured with the low-sensitivity loop of the radiodetector. The remaining samples were analyzed with the high-sensitivity loop due to the lower radioactivity present in blood, liver and kidney homogenate. To quantify the percentage of intact [^177Lu]Lu-1 and [^177Lu]Lu-M1 showing some overlap in the radiochromatogram when using the high-sensitivity loop of the radiodetector, the two radiopeptides were co-injected at different known ratios to enable a more accurate separation and integration of the two peaks (see supporting Figure S4). Mice from the metabolic biodistribution studies were subjected to a further dissection of all remaining tissues (blood, lung, heart, femur, spleen, muscle, intestine, pancreas and stomach). All organs, also including liver and kidneys, were weighed, and their radioactivity was measured in the gamma counter together with a standard and the residual body. To quantify the uptake of radioactivity in liver and kidneys, a part of liver and kidney homogenate was measured in the gamma counter to extrapolate the radioactivity for the whole organ.

[5] = octanol/PBS pH 7.4, read-out: logD
[6] = blood, 30 min p.i., mice injected i.v. with [177Lu]Lu-1
[7] = blood, 60 min p.i., mice injected i.v. with [177Lu]Lu-1
[8] = blood, different time points up to 1 h p.i.

CCCC[C@@H](C(=O)N[C@@H](CC(=O)O)C(=O)N[C@@H](Cc1cccc2ccccc12)C(=O)O)N(C)C(=O)[C@H](Cc1c[nH]c2ccccc12)NC(=O)CNC(=O)[C@H](Cc1ccc(O)cc1)NC(=O)[C@@H]1CCCN1C(=O)[C@@H](CCC(=O)O)NC(=O)CN1CCN(CC(=O)O)CCN(CC(=O)O)CCN(CC(=O)O)CC1 [M1, DOTA-DGlu-Pro-Tyr-Gly-Trp-(N-Me)Nle-Asp-1Nal-COOH] ({DOTA}-[dE]PYGW[NMeNle]D[1Nal]-OH)
IC50 (human CCK2R): > 1 µM

CCCC[C@@H](C(=O)N[C@@H](CC(=O)O)C(=O)O)N(C)C(=O)[C@H](Cc1c[nH]c2ccccc12)NC(=O)CNC(=O)[C@H](Cc1ccc(O)cc1)NC(=O)[C@@H]1CCCN1C(=O)[C@@H](CCC(=O)O)NC(=O)CN1CCN(CC(=O)O)CCN(CC(=O)O)CCN(CC(=O)O)CC1 [M2, DOTA-DGlu-Pro-Tyr-Gly-Trp-(N-Me)Nle-Asp] ({DOTA}-[dE]PYGW[NMeNle]D-OH; C-terminus assumed)
IC50 (human CCK2R): > 1 µM

CCCC[C@@H](C(=O)O)N(C)C(=O)[C@H](Cc1c[nH]c2ccccc12)NC(=O)CNC(=O)[C@H](Cc1ccc(O)cc1)NC(=O)[C@@H]1CCCN1C(=O)[C@@H](CCC(=O)O)NC(=O)CN1CCN(CC(=O)O)CCN(CC(=O)O)CCN(CC(=O)O)CC1 [M3, DOTA-DGlu-Pro-Tyr-Gly-Trp-(N-Me)Nle] ({DOTA}-[dE]PYGW[NMeNle]-OH; C-terminus assumed)
IC50 (human CCK2R): > 1 µM

O=C(O)CC[C@@H](NC(=O)CN1CCN(CC(=O)O)CCN(CC(=O)O)CCN(CC(=O)O)CC1)C(=O)N1CCC[C@H]1C(=O)N[C@@H](Cc1ccc(O)cc1)C(=O)NCC(=O)N[C@@H](Cc1c[nH]c2ccccc12)C(=O)O [M4, DOTA-DGlu-Pro-Tyr-Gly-Trp] ({DOTA}-[dE]PYGW-OH; C-terminus assumed)
IC50 (human CCK2R): > 1 µM

CCCC[C@@H](C(=O)N[C@@H](CC(=O)O)C(=O)N[C@@H](Cc1cccc2ccccc12)C(=O)O)N(C)C(=O)[C@H](Cc1c[nH]c2ccccc12)NC(=O)CNC(=O)[C@H](Cc1ccc(O)cc1)NC(=O)[C@@H]1CCCN1C(=O)[C@@H](CCC(=O)O)NC(=O)CN1CCN(CC(=O)O)CCN(CC(=O)O)CCN(CC(=O)O)CC1 [[^177Lu]Lu-M1, metal not drawn] ({DOTA}-[dE]PYGW[NMeNle]D[1Nal]-OH)
intact radiopeptide [1]: 89.1 ± 1.3% | intact radiopeptide ([1]; listed as radiolabeled M1): 89% | logD [2, 5]: -4.07 ± 0.35 | fraction unbound [3]: 0.546 | percentage of intact radiopeptide / radiometabolite [4, 6]: 9.9% | percentage of intact radiopeptide / radiometabolite [4, 7]: 5.8% | amount of radiometabolite [4, 8]: < 10% | percentage of intact radiopeptide / radiometabolite ([4]; kidney, 30 min p.i.): 2.5% | percentage of intact radiopeptide / radiometabolite ([4]; liver, 30 min p.i.): 4.8% | percentage of intact radiopeptide / radiometabolite ([4]; liver, 60 min p.i.): 4.6% | percentage of intact radiopeptide / radiometabolite ([4]; urine, 30 min p.i.): 1.4%

CCCC[C@@H](C(=O)N[C@@H](CC(=O)O)C(=O)O)N(C)C(=O)[C@H](Cc1c[nH]c2ccccc12)NC(=O)CNC(=O)[C@H](Cc1ccc(O)cc1)NC(=O)[C@@H]1CCCN1C(=O)[C@@H](CCC(=O)O)NC(=O)CN1CCN(CC(=O)O)CCN(CC(=O)O)CCN(CC(=O)O)CC1 [[^177Lu]Lu-M2, metal not drawn] ({DOTA}-[dE]PYGW[NMeNle]D-OH; C-terminus assumed)
intact radiopeptide [1]: 98.1 ± 0.3% | logD [2, 5]: -4.18 ± 0.17 | fraction unbound [3]: 0.519 | percentage of intact radiopeptide / radiometabolite [4, 6]: 3.8% | percentage of intact radiopeptide / radiometabolite [4, 7]: 7.3% | amount of radiometabolite [4, 8]: < 8% | percentage of intact radiopeptide / radiometabolite ([4]; kidney, 30 min p.i.): 20.7% | percentage of intact radiopeptide / radiometabolite ([4]; kidney, 60 min p.i.): 12% and 12.3% | percentage of intact radiopeptide / radiometabolite ([4]; liver, 30 min p.i.): 7.2% | percentage of intact radiopeptide / radiometabolite ([4]; liver, 60 min p.i.): 6.9% | percentage of intact radiopeptide / radiometabolite ([4]; urine, 30 min p.i.): 40.5% | percentage of intact radiopeptide / radiometabolite ([4]; urine, 60 min p.i.): 40.3% | amount of radiometabolite ([4]; urine, time point not stated): ~ 40%

O=C(O)CC[C@@H](NC(=O)CN1CCN(CC(=O)O)CCN(CC(=O)O)CCN(CC(=O)O)CC1)C(=O)N1CCC[C@H]1C(=O)N[C@@H](Cc1ccc(O)cc1)C(=O)NCC(=O)N[C@@H](Cc1c[nH]c2ccccc12)C(=O)O [[^177Lu]Lu-M4, metal not drawn] ({DOTA}-[dE]PYGW-OH; C-terminus assumed)
logD ([2]; pH 7.4): -4.19 ± 0.3 | amount of radiometabolite ([4]; mouse, in vivo): < 3%

O=C(O)CC[C@@H](NC(=O)CN1CCN(CC(=O)O)CCN(CC(=O)O)CCN(CC(=O)O)CC1)C(=O)N1CCC[C@H]1C(=O)N[C@@H](Cc1ccc(O)cc1)C(=O)NCC(=O)O [[^177Lu]Lu-M5, metal not drawn] ({DOTA}-[dE]PYG-OH; C-terminus assumed)
amount of radiometabolite ([4]; mouse, in vivo): < 10%

O=C(O)CC[C@@H](NC(=O)CN1CCN(CC(=O)O)CCN(CC(=O)O)CCN(CC(=O)O)CC1)C(=O)N1CCC[C@H]1C(=O)N[C@@H](Cc1ccc(O)cc1)C(=O)O [[^177Lu]Lu-M6, metal not drawn] ({DOTA}-[dE]-Pro-Tyr-OH; C-terminus assumed)
amount of radiometabolite ([4]; mouse, in vivo): ~ 20%

CCCC[C@@H](C(=O)N[C@@H](CC(=O)O)C(=O)N[C@@H](Cc1cccc2ccccc12)C(N)=O)N(C)C(=O)[C@H](Cc1c[nH]c2ccccc12)NC(=O)CNC(=O)[C@H](Cc1ccc(O)cc1)NC(=O)[C@@H]1CCCN1C(=O)[C@@H](CCC(=O)O)NC(=O)CN1CCN(CC(=O)O)CCN(CC(=O)O)CCN(CC(=O)O)CC1 [compound 1, DOTA-DGlu-Pro-Tyr-Gly-Trp-(N-Me)Nle-Asp-1Nal-NH2] ({DOTA}-[dE]PYGW[NMeNle]D[1Nal]-NH2)
IC50 (human CCK2R): 0.00069 ± 9e-05 µM
